Laboratory results: ChEMBL document CHEMBL1201862, “PubChem BioAssay data set” (2004)
Active and inactive are the calls of the source.

Key:
[1] = Jurkat T cell cytotoxicity, dose response, cytotoxicity control for P. falciparum gametocyte viability project, luminescence (AID 1117277); type: functional, cell-based;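 also: potency reflects loss of cellular ATP meaning fewer viable cells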
[2] = P. falciparum late gametocyte killing, dose response, luminescence (AID 1117278); type: functional, cell-based;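 also: gametocytes exposed to compound for 24 hours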
Ephrin type-A receptor 4 = Ephrin type-A receptor 4 (Mus musculus, UniProt Q03137); test: inhibitors of EphA4 binding to KYL peptide, primary screen, biochemical, colorimetric, mouse EphA4 (AID 689); type: functional
Ephrin type-A receptor 4, sequence (Q03137 whole entry): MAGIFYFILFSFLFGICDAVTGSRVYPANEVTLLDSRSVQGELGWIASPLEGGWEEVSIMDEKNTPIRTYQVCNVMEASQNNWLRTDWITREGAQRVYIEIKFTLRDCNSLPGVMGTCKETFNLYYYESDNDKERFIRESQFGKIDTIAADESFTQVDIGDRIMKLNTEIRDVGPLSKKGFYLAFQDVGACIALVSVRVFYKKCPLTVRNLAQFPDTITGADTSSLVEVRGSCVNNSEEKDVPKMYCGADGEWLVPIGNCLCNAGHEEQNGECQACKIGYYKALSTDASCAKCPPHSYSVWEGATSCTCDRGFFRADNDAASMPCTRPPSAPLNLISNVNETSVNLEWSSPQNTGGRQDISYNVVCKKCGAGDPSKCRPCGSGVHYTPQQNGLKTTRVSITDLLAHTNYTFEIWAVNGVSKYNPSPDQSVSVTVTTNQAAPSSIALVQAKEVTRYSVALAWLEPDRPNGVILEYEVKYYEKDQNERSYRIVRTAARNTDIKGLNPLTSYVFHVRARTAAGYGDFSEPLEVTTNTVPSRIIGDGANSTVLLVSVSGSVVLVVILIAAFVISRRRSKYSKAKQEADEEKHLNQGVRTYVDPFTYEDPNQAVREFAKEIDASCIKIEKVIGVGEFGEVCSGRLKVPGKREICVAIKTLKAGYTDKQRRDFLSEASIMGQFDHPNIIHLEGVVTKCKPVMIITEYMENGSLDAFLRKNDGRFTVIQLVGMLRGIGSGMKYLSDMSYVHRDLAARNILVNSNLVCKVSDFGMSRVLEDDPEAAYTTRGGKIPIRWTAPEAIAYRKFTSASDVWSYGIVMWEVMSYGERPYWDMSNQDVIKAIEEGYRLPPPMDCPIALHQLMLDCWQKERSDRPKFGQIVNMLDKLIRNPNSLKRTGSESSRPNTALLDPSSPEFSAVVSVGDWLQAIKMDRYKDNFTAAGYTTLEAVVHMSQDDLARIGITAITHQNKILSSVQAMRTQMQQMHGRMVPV

[3] = C. albicans growth with fluconazole, confirmation, fluorescence, retest (AID 2467); type: functional, cell-based
[4] = biological target: T1, Heat shock factor protein 1 (Mus musculus, UniProt P38532); test: inhibition of MG132-induced HSE-luciferase signal, confirmation, cell-based, NIH3T3, luminescence, dose retest (AID 2382); type: functional;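 also: NIH3T3 fibroblasts with HSF1-driven luciferase reporter stressed by proteasome inhibitor MG132; luminescence from HSF1-driven luciferase expression after 8 hours of MG132 stress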
T1 sequence (P38532 whole entry): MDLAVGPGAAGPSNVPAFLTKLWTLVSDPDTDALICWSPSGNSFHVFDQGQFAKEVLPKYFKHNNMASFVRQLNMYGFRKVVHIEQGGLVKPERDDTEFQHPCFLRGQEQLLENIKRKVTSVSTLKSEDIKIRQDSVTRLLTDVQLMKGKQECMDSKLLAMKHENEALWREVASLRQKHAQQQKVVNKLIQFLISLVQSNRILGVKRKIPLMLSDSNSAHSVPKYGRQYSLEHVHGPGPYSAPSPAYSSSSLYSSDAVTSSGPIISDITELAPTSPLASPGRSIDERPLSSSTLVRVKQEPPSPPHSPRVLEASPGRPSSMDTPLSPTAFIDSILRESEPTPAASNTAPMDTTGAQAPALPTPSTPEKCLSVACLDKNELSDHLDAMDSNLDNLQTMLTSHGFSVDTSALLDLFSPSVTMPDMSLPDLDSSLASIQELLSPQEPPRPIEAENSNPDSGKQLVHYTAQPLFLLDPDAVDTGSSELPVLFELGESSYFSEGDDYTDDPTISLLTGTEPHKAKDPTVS

[5] = HEp-2 cell cytotoxicity, dose response, cytotoxicity control for RSV inhibitor project, HTS (AID 2410); type: functional; details: human respiratory syncytial virus
[6] = NIH-3T3 fibroblast cytotoxicity, dose response, cytotoxicity control, cell-based, fluorescence, Alamar Blue, secondary assay (AID 2327); type: functional;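 also: NIH-3T3 mouse fibroblasts cultured with fluconazole at 8 µg/mL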
[7] = biological target: Ubiquitin carboxyl-terminal hydrolase BAP1 (Homo sapiens, UniProt Q92560); test: BAP1 deubiquitinase inhibitors, dose response, biochemical (AID 714); type: functional
Ubiquitin carboxyl-terminal hydrolase BAP1, sequence (Q92560 whole entry): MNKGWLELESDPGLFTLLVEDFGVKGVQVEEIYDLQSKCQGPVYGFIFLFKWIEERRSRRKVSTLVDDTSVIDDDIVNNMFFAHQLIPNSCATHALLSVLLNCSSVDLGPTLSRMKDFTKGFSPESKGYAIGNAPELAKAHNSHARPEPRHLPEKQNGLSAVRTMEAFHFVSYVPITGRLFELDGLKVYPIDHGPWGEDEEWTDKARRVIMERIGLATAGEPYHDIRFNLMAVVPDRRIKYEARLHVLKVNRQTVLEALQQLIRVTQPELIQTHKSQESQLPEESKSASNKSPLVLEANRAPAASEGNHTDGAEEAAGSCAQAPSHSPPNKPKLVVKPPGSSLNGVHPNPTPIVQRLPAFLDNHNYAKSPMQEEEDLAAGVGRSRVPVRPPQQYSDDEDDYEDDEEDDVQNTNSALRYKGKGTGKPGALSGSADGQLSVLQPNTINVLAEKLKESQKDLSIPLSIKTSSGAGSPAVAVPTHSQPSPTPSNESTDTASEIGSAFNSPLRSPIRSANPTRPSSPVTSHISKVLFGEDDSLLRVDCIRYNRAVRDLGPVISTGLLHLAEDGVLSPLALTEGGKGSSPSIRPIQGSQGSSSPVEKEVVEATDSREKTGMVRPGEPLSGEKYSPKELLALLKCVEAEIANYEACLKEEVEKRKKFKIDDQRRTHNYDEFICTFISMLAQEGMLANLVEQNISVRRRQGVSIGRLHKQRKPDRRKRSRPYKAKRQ

[8] = HCT116 cell viability decrease, GSK3B pretreatment – CellTiter-Glo, IC50, dose response (AID 1117339); type: functional; details: HCT-116
[9] = SNU-C1 cell viability reduction, dose response, CellTiter-Glo luminescence (AID 1117323); type: functional, cell-based
[10] = cytotoxicity toward HCT116 cells – cell-based, CellTiter-Glo luminescence, IC50, dose response (AID 1117332); type: functional; details: HCT-116
[11] = Concentration-dependent survival of SW480 colon cancer line, luminescence detection with CellTiter-Glo, half-maximal inhibitory concentration (AID 1117338); type: functional
[12] = CellTiter-Glo luminescent dose response of DLD-1 viability loss (AID 1117352); type: functional
[13] = HeLa 2N DNA content increase, dose response, cell-based, IC50 (AID 1117349); type: functional
[14] = cytotoxicity toward HT-29 cells – cell-based, CellTiter-Glo luminescence, IC50, dose response (AID 1117330); type: functional
[15] = P. falciparum Dd2 growth inhibitors, dose response, SYBR Green, cherry-picked samples (AID 1159567); type: functional, cell-based
[16] = HepG2 cell cytotoxicity, dose response, cytotoxicity control, cherry-picked samples (AID 1159577); type: functional, cell-based
[17] = P. falciparum Dd2 growth inhibitors, dose response, SYBR Green, dry powder samples (AID 1159566); type: functional, cell-based;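 also: potency for growth inhibition with lower SYBR green DNA signal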
[18] = P. falciparum ATP4 D1247Y mutant growth inhibitors, dose response, NITD609-resistant line, SYBR Green, dry powder (AID 1159571); type: functional, cell-based;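 also: parasites synchronized at ring stage by sorbitol before testing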
[19] = P. falciparum Dd2 growth inhibitors, dose response, SYBR Green, dry powder samples, set 9 (AID 1159568); type: functional, cell-based
[20] = Plasmodium falciparum Dd2 Sybr green parasite growth Measured in Cell-Based and Microorganism Combination System Using Plate Reader - 2153-01_Inhibitor_Dose_DryPowder_Activity_Set3.; type: functional
[21] = HepG2 cell cytotoxicity, dose response, cytotoxicity control, plate reader, dry powder samples (AID 1159569); type: functional, cell-based;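 also: inhibitor potency with signal falling toward the positive control level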
[22] = P. falciparum 3D7-ScDHODH growth inhibitors, dose response, SYBR Green, dry powder samples (AID 1159570); type: functional, cell-based;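 also: parasite growth measured after 72 hours of compound exposure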
[23] = HeLa 4N DNA content increase, dose response, cell-based, IC50 (AID 1117351); type: functional
cells = type: functional, cell-based; details: INS-1E
[24] = Dose-response inhibition of insulin secretion in a rat insulinoma line at 5 mM glucose (AID 1117331); type: functional, cell-based; details: INS-1E

**Q.** Which results are given for `CC(CC(=O)Nc1ccc(F)c([N+](=O)[O-])c1)c1ccccc1` (configuration not stated)?
**A.** IC50 [1]: > 83.3 µM (inactive); IC50 [2]: > 109 µM (inactive)

**Q.** Which IC50 (Ephrin type-A receptor 4) does the source give for `COc1ccc(NC2=Nc3ccccc3N3C2=Nc2c(c(C)nn2-c2ccc(C)cc2)C3c2cccnc2)cc1` (configuration not stated) here?
**A.** 10.4 µM (active)

**Q.** What about the EC50 [3] of the same compound?
**A.** > 38 µM (not active)

**Q.** What about the EC50 [4] of the same compound?
**A.** > 195 µM (not active)

**Q.** What about the CC50 [5] of the same compound?
**A.** > 50 µM (active)

**Q.** What about the EC50 [6] of the same compound?
**A.** 53.8 µM (active)

**Q.** Which IC50 [7] does the source give for `N#Cc1c(NC(=O)CSc2nnnn2C2CCCCC2)sc2c1CCCC2` here?
**A.** > 50 µM (not active)

**Q.** What does the source list for `CC(C)C[C@H](NC(=O)[C@H](Cc1ccccc1)NC(=O)c1cnccn1)B(O)O`?
**A.** IC50 [8]: 0.00241 µM (active); IC50 [9]: 0.0032 µM (active); IC50 [10]: 0.00365 µM (active); IC50 [11]: 0.00513 µM (active); IC50 [12]: 0.00636 µM (active); IC50 [13]: 0.0078 µM (active); IC50 [14]: 0.00315 µM (active)

**Q.** What does the source list for `COc1ccc(-c2ccc([C@H]3[C@@H](C#N)N(C(=O)NC(C)C)[C@@H]3CO)cc2)cc1`?
**A.** AC50 [15]: 0.725 µM (active); AC50 [16]: > 39 µM (inactive); AC50 [17]: 0.472 µM (active); AC50 [18]: 0.528 µM (active); AC50 [19]: 0.604 µM (active); AC50 [20]: 0.511 µM (active); AC50 [21]: 78 µM (active); AC50 [22]: 14.7 µM (active)

**Q.** With `CCN(CC)CCOc1ccccc1C(=O)CCc1ccccc1` [ETAFENONE] as the compound, how does the IC50 [23] read?
**A.** > 10 µM (inactive)

**Q.** And the IC50 [13]?
**A.** > 10 µM (inactive)

**Q.** What about the IC50 (cells) of the same compound?
**A.** > 33.3 µM (inactive)

**Q.** And the IC50 [24]?
**A.** 3.89 µM (active)
